This test concerns the target T1, pyruvate decarboxylase (ZmPDC) (Zymomonas mobilis, UniProt P06672).
T1 construct: gene pdc; N-terminal His6-tag, pET28a, overexpressed in E. coli; tetramer (dimer of dimers)
Kind of test: coupled PDC/ADH assay (NADH, […] nm); time-course inactivation of apo-PDC and equilibrium competition with ThDP. In kind it is biochemical.

Structures are written as SMILES.

The values below come from article PMC4222410, “Gold(I)-catalysed synthesis of a furan analogue of thiamine pyrophosphate” (Beilstein Journal of Organic Chemistry, 2014).

T1 sequence (P06672 whole entry): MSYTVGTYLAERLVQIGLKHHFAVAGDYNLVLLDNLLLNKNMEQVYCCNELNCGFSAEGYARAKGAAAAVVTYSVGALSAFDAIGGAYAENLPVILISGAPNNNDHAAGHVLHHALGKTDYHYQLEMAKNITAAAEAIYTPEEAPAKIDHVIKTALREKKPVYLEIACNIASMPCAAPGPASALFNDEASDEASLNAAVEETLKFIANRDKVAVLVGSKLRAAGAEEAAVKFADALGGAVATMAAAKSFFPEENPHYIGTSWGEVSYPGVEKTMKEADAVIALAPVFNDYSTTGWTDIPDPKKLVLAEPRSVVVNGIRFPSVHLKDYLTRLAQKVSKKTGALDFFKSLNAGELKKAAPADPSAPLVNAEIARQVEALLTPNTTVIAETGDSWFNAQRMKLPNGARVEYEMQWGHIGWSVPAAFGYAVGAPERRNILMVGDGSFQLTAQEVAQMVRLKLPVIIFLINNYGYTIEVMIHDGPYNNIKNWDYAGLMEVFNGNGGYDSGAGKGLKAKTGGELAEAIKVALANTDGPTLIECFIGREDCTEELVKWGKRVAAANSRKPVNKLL

`Cc1ncc(Cc2coc(CCOP(=O)(O)OP(=O)(O)O)c2)c(N)n1` [compound 17, furan analogue of ThDP] displayed a Ki of 32.5 pM.
